These results are taken from article PMC11233587, “Design, synthesis, in vitro, and in silico anti-α-glucosidase assays of N-phenylacetamide-1,2,3-triazole-indole-2-carboxamide derivatives as new anti-diabetic agents” (Scientific Reports, 2024).

Data set [1] addresses yeast α-glucosidase (Saccharomyces cerevisiae, UniProt P53341). In words: biochemical. Type of data set: biochemical.
In data set [2] the target is α-glucosidase. The arrangement: method as in doi:10.1007/s00044-020-02603-7. To be noted: template compounds A, read-out: IC50 for Compounds A (Fig. 3); cited from earlier work.
The target in data set [3] is T1, α-amylase (pancreatic form) (Homo sapiens, UniProt P04746).
T1 sequence (P04746 16-511): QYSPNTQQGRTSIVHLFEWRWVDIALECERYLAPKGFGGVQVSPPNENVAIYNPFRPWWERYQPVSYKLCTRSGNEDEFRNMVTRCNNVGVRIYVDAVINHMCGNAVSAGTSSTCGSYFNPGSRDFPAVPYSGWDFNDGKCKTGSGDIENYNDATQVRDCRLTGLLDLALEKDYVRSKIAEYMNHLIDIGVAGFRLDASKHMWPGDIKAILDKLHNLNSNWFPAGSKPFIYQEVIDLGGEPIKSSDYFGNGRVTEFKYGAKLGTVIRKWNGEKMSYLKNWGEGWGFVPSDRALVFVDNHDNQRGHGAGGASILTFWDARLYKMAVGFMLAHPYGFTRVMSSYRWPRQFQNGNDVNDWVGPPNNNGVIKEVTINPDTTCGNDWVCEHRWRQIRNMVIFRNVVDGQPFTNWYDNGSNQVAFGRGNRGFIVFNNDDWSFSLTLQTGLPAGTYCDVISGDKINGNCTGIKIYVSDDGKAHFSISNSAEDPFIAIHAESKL
In words: α-Amylase inhibition assay. Type of data set: biochemical. To be noted: read-out: IC50 against α-amylase. As for the experimental part: Inhibitory activity of the most poten new α-glucosidase inhibitors 5k, 5j, and 5f was evaluated against α-amylase (pancreatic form)[15].
(Supplementary Information S1).

Data set [4] concerns the target α-glucosidase (Saccharomyces cerevisiae, UniProt P53341). The data set is described as follows: Kinetics of α-glucosidase inhibition (Lineweaver–Burk plot and secondary plot). Type of data set: biochemical, yeast. From the text:
As the result, with increasing concentration of compound 5k, Vmax values remained constant while Km values increased.
In vitro assays (inhibition effects and kinetics) of the new compounds 5a–n performed according to pervious reported work[15] (Supplementary Information S1).

[5] abbreviates: read-out: IC50 against α-glucosidase.

Each structure is given as a SMILES string. “Also recorded” adds a separate entry of the source. Read-outs that look alike come from different tables or passages of the source.

α-glucosidase (Saccharomyces cerevisiae, UniProt P53341), sequence (P53341 whole entry): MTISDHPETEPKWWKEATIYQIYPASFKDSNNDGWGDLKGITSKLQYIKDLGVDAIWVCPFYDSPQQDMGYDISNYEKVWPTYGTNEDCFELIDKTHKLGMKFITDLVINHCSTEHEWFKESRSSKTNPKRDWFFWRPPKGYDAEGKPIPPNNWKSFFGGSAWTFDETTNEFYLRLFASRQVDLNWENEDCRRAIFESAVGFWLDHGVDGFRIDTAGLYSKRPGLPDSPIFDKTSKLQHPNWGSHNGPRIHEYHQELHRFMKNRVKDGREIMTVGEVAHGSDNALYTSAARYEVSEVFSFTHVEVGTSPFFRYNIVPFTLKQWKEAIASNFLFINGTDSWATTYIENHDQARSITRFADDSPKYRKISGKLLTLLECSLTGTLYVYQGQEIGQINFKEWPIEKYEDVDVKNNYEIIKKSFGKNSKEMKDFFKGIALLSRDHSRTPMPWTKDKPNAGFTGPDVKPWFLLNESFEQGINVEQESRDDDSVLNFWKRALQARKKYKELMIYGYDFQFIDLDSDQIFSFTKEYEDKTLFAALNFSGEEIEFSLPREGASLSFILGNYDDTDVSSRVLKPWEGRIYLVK
yeast α-glucosidase, sequence (P53341 whole entry): as above

`Cc1cc([N+](=O)[O-])ccc1NC(=O)Cn1cc(CNC(=O)c2cc3ccccc3[nH]2)nn1` [Compound 5n, N-((1-(2-((2-methyl-4-nitrophenyl)amino)-2-oxoethyl)-1H-1,2,3-triazol-4-yl)methyl)-1H-indole-2-carboxamide]: the melting point (commonly the temperature, or range, at which the solid turns liquid) lay within 229 to 231 °C. The half-maximal inhibitory concentration (IC50) (commonly the concentration that gives 50% inhibition) in data set [1] (setting [5]) was 43.5 ± 0.7 µM.

For the molecule `O=C(Cn1cc(CNC(=O)c2c3ccccc3nc3ccccc23)nn1)Nc1ccccc1` [Compounds A, R = H], in data set [2], the concentration for half-maximal inhibition (IC50) is 171 ± 2.1 µM.

In turn, `O=C(Cn1cc(CNC(=O)c2cc3ccccc3[nH]2)nn1)Nc1ccc(Cl)cc1Cl` [Compound 5j, N-((1-(2-((2,4-dichlorophenyl)amino)-2-oxoethyl)-1H-1,2,3-triazol-4-yl)methyl)-1H-indole-2-carboxamide] came in with a melting point of 233 to 235 °C. Further, the IC50 in data set [3] was above 150 µM. For the same molecule, the IC50 in data set [1] (setting [5]) was determined as 39.6 ± 1.4 µM.

With `Cc1cccc(C)c1NC(=O)Cn1cc(CNC(=O)c2cc3ccccc3[nH]2)nn1` [Compound 5e, N-((1-(2-((2,6-dimethylphenyl)amino)-2-oxoethyl)-1H-1,2,3-triazol-4-yl)methyl)-1H-indole-2-carboxamide], the melting point fell in the range of 208 to 210 °C. Further, in data set [1] (setting [5]), the IC50 worked out at 111 ± 1.6 µM.

On to `O=C(Cn1cc(CNC(=O)c2c3ccccc3nc3ccccc23)nn1)Nc1ccc(Br)cc1` [Compounds A, R = 4-Br], for which the IC50 in data set [2] was 269 ± 2.8 µM.

In turn, `Cc1cccc(NC(=O)Cn2cc(CNC(=O)c3cc4ccccc4[nH]3)nn2)c1` [Compound 5b, N-((1-(2-oxo-2-(m-tolylamino)ethyl)-1H-1,2,3-triazol-4-yl)methyl)-1H-indole-2-carboxamide] showed a melting point of 224 to 226 °C. This molecule also yielded an IC50 in data set [1] of 63.6 ± 1.1 µM.

As to `COc1ccc(NC(=O)Cn2cc(CNC(=O)c3cc4ccccc4[nH]3)nn2)cc1` [Compound 5g, N-((1-(2-((4-methoxyphenyl)amino)-2-oxoethyl)-1H-1,2,3-triazol-4-yl)methyl)-1H-indole-2-carboxamide], the melting point was 209 to 211 °C. Further, the IC50 in data set [1] was 83 ± 0.7 µM.

As to `O=C(Cn1cc(CNC(=O)c2c3ccccc3nc3ccccc23)nn1)Nc1ccc(Cl)cc1` [Compounds A, R = 4-Cl], in data set [2], the IC50 is 309 ± 3.4 µM.

`O=C(Cn1cc(CNC(=O)c2cc3ccccc3[nH]2)nn1)Nc1ccccc1` [Compound 5a, N-((1-(2-oxo-2-(phenylamino)ethyl)-1H-1,2,3-triazol-4-yl)methyl)-1H-indole-2-carboxamide] yielded a melting point of 216 to 218 °C. Also, the IC50 in data set [1] is 62.9 ± 0.3 µM.

`O=C(Cn1cc(CNC(=O)c2cc3ccccc3[nH]2)nn1)Nc1cccc([N+](=O)[O-])c1` [Compound 5l, N-((1-(2-((3-nitrophenyl)amino)-2-oxoethyl)-1H-1,2,3-triazol-4-yl)methyl)-1H-indole-2-carboxamide] came in with a melting point of 254 to 256 °C. Besides, in data set [1] (setting [5]), the IC50 is 110.3 ± 0.6 µM.

In the case of `O=C(Cn1cc(CNC(=O)c2c3ccccc3nc3ccccc23)nn1)Nc1ccc([N+](=O)[O-])cc1` [Compounds A, R = 4-NO2], the IC50 in data set [2] was 152 ± 1.7 µM.

`O=C(Cn1cc(CNC(=O)c2cc3ccccc3[nH]2)nn1)Nc1ccc(Br)cc1` [Compound 5k, N-((1-(2-((4-bromophenyl)amino)-2-oxoethyl)-1H-1,2,3-triazol-4-yl)methyl)-1H-indole-2-carboxamide] came in with a melting point of 236 to 238 °C. Also, in data set [4] (Lineweaver–Burk plot, Vmax constant, Km increased), the type of inhibition result is listed as “competitive type of inhibition; also recorded: competitive inhibitor”. The affinity in data set [4] (secondary plot of Lineweaver–Burk plots), expressed as Ki, was 26 µM. In addition, the IC50 in data set [3] was above 150 µM. The concentration for half-maximal inhibition (IC50) in data set [1] amounted to 26.8 ± 0.5 µM. For the same molecule, the “improvement in the inhibition effect in comparison to standard inhibitor acarbose” value in data set [1] (ratio of α-glucosidase IC50 values, acarbose vs compound) was around 28 fold.

`CCc1ccc(NC(=O)Cn2cc(CNC(=O)c3cc4ccccc4[nH]3)nn2)cc1` [Compound 5f, N-((1-(2-((4-ethylphenyl)amino)-2-oxoethyl)-1H-1,2,3-triazol-4-yl)methyl)-1H-indole-2-carboxamide]: the melting point is 203 to 205 °C. Moreover, the IC50 in data set [3] is above 150 µM. Moreover, the IC50 in data set [1] (setting [5]) turned out to be 40.2 ± 1.6 µM.

The molecule `Cc1ccc(NC(=O)Cn2cc(CNC(=O)c3cc4ccccc4[nH]3)nn2)cc1` [Compound 5c, N-((1-(2-oxo-2-(p-tolylamino)ethyl)-1H-1,2,3-triazol-4-yl)methyl)-1H-indole-2-carboxamide] registered a melting point of 231 to 233 °C. The same molecule returned an IC50 in data set [1] of 42.6 ± 0.9 µM.

The molecule `O=C(Cn1cc(CNC(=O)c2cc3ccccc3[nH]2)nn1)Nc1ccc([N+](=O)[O-])cc1` [Compound 5m, N-((1-(2-((4-nitrophenyl)amino)-2-oxoethyl)-1H-1,2,3-triazol-4-yl)methyl)-1H-indole-2-carboxamide] registered a melting point of 259 to 261 °C. Further, the IC50 in data set [1] (setting [5]) was 78.8 ± 0.3 µM.

`O=C(Cn1cc(CNC(=O)c2cc3ccccc3[nH]2)nn1)Nc1ccc(Cl)cc1` [Compound 5i, N-((1-(2-((4-chlorophenyl)amino)-2-oxoethyl)-1H-1,2,3-triazol-4-yl)methyl)-1H-indole-2-carboxamide] returned a melting point of 225 to 227 °C. Besides, the IC50 in data set [1] stood at 83 ± 1.6 µM.

In the case of `O=C(Cn1cc(CNC(=O)c2cc3ccccc3[nH]2)nn1)Nc1cccc(Cl)c1` [Compound 5h, N-((1-(2-((3-chlorophenyl)amino)-2-oxoethyl)-1H-1,2,3-triazol-4-yl)methyl)-1H-indole-2-carboxamide], the melting point lay within 211 to 213 °C.

As to `Cc1cccc(NC(=O)Cn2cc(CNC(=O)c3cc4ccccc4[nH]3)nn2)c1C` [Compound 5d, N-((1-(2-((2,3-dimethylphenyl)amino)-2-oxoethyl)-1H-1,2,3-triazol-4-yl)methyl)-1H-indole-2-carboxamide], the melting point lay in the range of 205 to 207 °C. For the same molecule, in data set [1] (setting [5]), the IC50 came to 66 ± 1.8 µM.

For the molecule `Cc1ccc(NC(=O)Cn2cc(CNC(=O)c3c4ccccc4nc4ccccc34)nn2)cc1` [Compounds A, R = 4-Me], the concentration for half-maximal inhibition (IC50) in data set [2] is 519 ± 6.7 µM.
